Relative viability data for one cell line are collected here from the supplement of paper PMC10307832.

Test in all cases: relative viability (nuclei count vs DMSO), 5 days (fraction); higher = more cells survive
Compound in test [1]: CC1=CC(=C(N1C2=CC=C(C=C2)Cl)C)C(=O)CN3CCCCC3 [IU1-47] + CC(C)C[C@H](NC(=O)[C@H](Cc1ccccc1)NC(=O)c1cnccn1)B(O)O [Bortezomib] (partner 0.002 µM)
A digest of the protocol:
(§1)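 Relative viability is defined as nuclei in treated wells over nuclei in vehicle wells. Duplicate plates were run and medians reported. Lung cancer cell lines in 1536-well plates were dosed by pin tool one day after seeding, with one drug or with a fixed anchor-drug dose plus five library-drug doses (not always all listed) in √10 steps, and nuclei were counted after 5 days.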

Compound in test [2]: CC1=CC(=C(N1C2=CC=C(C=C2)Cl)C)C(=O)CN3CCCCC3 [IU1-47] + O=C(CCCCCCC(=O)Nc1ccccc1)NO [Vorinostat] (partner 1 µM)
A digest of the protocol:
as §1

Compound in test [3]: Cc1nc(C(=O)NCC(=O)O)c(O)c2ccc(Oc3ccccc3)cc12 [FG-4592] + COc1cccc2cc(-c3nc([C@H]4CC[C@H](C(=O)O)CC4)n4ncnc(N)c34)[nH]c12 [OSI-027] (partner 0.5 µM)
The essentials:
as §1

Compound in test [4]: Cc1nc(C(=O)NCC(=O)O)c(O)c2ccc(Oc3ccccc3)cc12 [FG-4592] + Nc1ncn([C@H]2C[C@H](O)[C@@H](CO)O2)c(=O)n1 [Decitabine] (partner 2 µM)
The essentials:
as §1

In the case of UMC-11, the relative viability turned out to be 0.653 in test [1] (first compound 0.08 µM); 0.618 in test [1] (first compound 0.253 µM); 0.673 in test [1] (first compound 0.8 µM); 1.04 in test [1] (first compound 2.53 µM); 0.575 in test [1] (first compound 8 µM); 0.409 in test [2] (first compound 0.08 µM). Moreover, the relative viability stood at 0.408 in test [2] (first compound 0.253 µM); 0.374 in test [2] (first compound 0.8 µM); 0.413 in test [2] (first compound 2.53 µM); 0.377 in test [2] (first compound 8 µM); 0.466 in test [3] (first compound 0.08 µM); 0.529 in test [3] (first compound 0.253 µM). The relative viability amounted to 0.498 in test [3] (first compound 0.8 µM); 0.461 in test [3] (first compound 2.53 µM); 0.441 in test [3] (first compound 8 µM); 0.54 in test [4] (first compound 0.08 µM); 0.604 in test [4] (first compound 0.253 µM); 0.532 in test [4] (first compound 0.8 µM). Further, the results for the relative viability in test [4] (first compound 2.53 µM) and in test [4] (first compound 8 µM) were 0.423 and 0.365, respectively.
